Data set [1] deals with Klebsiella pneumoniae ATCC ® 700603 (Sens.). Format: cell-based. An excerpt:
(§1) As bacterial growth progresses, OD625 nm values raised.

Data set [2] deals with Pseudomonas aeruginosa ATCC ® 27853 (Sens.). The class given is cell-based.
From the text: as §1

The subject of data set [3] is Pseudomonas aeruginosa ATCC ® BAA-2795 (MDR). Format: cell-based.
From the text: as §1

Data set [4] relates to Escherichia coli ATCC ® 25922 (Sens.). Format: cell-based.
From the text: as §1

The test system of data set [5] is Escherichia coli ATCC ® BAA-3048 (MDR). Format: cell-based.
From the text: as §1

The test system of data set [6] is Escherichia coli ATCC ® BAA-2452 (NDM-1). The class given is cell-based.
From the text: as §1

Data set [7] concerns Klebsiella pneumoniae ATCC ® BAA-2146 (NDM-1). Format: cell-based.
From the text: as §1

Data set [8] has as its system Pseudomonas aeruginosa ATCC ® BAA-2797 (MDR). Format: cell-based.
From the text: as §1

In data set [9] the test system is K. pneumoniae strain ATCC® 43816. The experiment in a line: Mouse lung infection model induced by K. pneumoniae, lung bacterial burden. As to conditions: neutropenic CD-1 female mice, 100 mg/kg intranasal two hours post-infection, 24 hours. The class given is in vivo. The procedure: Neutropenic CD-1 female mice were intratracheally inoculated with K. pneumoniae strain ATCC 43816 (75×10^3 CFU/mouse). Two hours post-inoculation, OMN71-treated group was administered by an intranasal injection of 100 mg/kg and the vehicle group was administered with 0.9% saline solution. Bacterial burden in the lungs was evaluated 24 hours post-infection. Control group of untreated mice n=2 (CTRL ▪), vehicle saline treated mice n=3 (vehicle ●), OMN71-treated group at 100 mg/kg n=3 (OMN71 100 mg/kg ▴).
Methods: Female CD-1 mice, weighing between 20-25 g were inoculated with K. pneumoniae bacteria to induce a lung infection. All animals were monitored during the entire period of the study and clinical signs were recorded. Briefly, eight animals were rendered neutropenic by two intraperitoneal injections of cyclophosphamide (Sigma-Aldrich, Italy) at 150 and 100 mg/kg, four and one day before the infection, respectively. […] The mice were anesthetized by IP injection of Ketamine-Xylazine at low dose and intratracheally inoculated with 50 μL of the bacterial suspension (75×10^3 CFU/mouse). Two hours post-infection (T2h), 100 mg/kg OMN71 in a total volume of 50 μl saline (0.9% NaCl) was administered intranasal. […] The mice were monitored during the entire study and scored for clinical signs of infection where no mortality or morbidity were observed.

Another data set deals with Hsd:ICR (CD-1) mice. Kind of data set: Safety of intra-nasal (IN) administration in mice (histopathology, mortality). Format: in vivo. Details: key to histopathological findings grade, Spleen / histopathological findings grade, Lungs / histopathological findings grade, Kidneys / histopathological findings grade, Heart / histopathological findings grade, Liver: Grade 0—The tissue appears normal, without any changes at all; Grade 1—Minimal pathological findings; Grade 2—Mild pathological findings; Grade 3—Moderate pathological findings; Grade 4—Severe pathological findings. As to conditions: 100 mg/kg IN. The procedure: Methods: Adverse effects of OMN71 on mice following intra-Nasal (IN) administration, safety was evaluated by tissue histopathology and mortality. 100 mg/kg of OMN71 in a total volume of 50 μl saline (0.9% NaCl) was administered intranasal (IN) to Hsd:ICR (CD-1) mice (20-25 g) in order to assess the presence any toxic effects. Control mice were administered with saline solution (0.9% NaCl) as vehicle. On the last time-point of each experiment (at T24h), mortality was assessed, the mice were sacrificed by IP injection of Ketamine-Xylazine and spleen, lungs, kidneys, heart and liver were collected for histopathology.
Slides of liver, heart, kidneys, lungs, and spleen were stained with Hematoxylin & Eosin (H&E) and were sent for evaluation. The H&E-stained slides were examined and pictures were taken using microscope equipped with a camera at objective magnification of ×4 and ×10.

Data set [10] concerns K. pneumoniae strain ATCC® 43816. The class given is cell-based.
A further data set has as its target Proteinase-K (ProtK) (Parengyodontium album, UniProt P06873). The class given is in vitro ADME. To be noted: 2.5 μg protein, 2 hours at 37° C. The procedure: Methods: Proteinase-K (ProtK) was used to assess the stability of OMN71 versus native OMN70 and Bovine Serum Albumin (BSA). 2.5 μg of each protein were incubated with increasing concentrations of 2.5 and 20 ng of ProtK as specified, for 2 hours at 37° C. Samples were boiled at 100° C. for five minutes and separated on 16.5% polyacrylamide gel. The gel was then stained with Coomassie Blue and excess dye was removed overnight.
Results: FIGS. 3A and 3B depict a Coomassie Blue stained gel detecting the following: FIG. 3A: Lanes 1, 2 and 3: […] of OMN70 subjected to 0/2.5/20 ng of Proteinase-K (ProtK), respectively. Lanes 4, 5 and 6: […] of OMN71 subjected to 0/2.5/20 ng of ProtK, respectively. FIG. 3B: Lanes 7, 8 and 9: […] of Bovine Serum Albumin (BSA) subjected to 0/2.5/20 ng of ProtK, respectively.

Values after ≈ are worked out from the molar mass of the structure shown. Like-named read-outs stand apart in the source and are kept apart here. Where a SMILES comes first, the peptide text is derived from it. Where no end group is shown, it is not given here. [ ]: non-standard residue; d: D form.

Chain of Proteinase-K (ProtK) (P06873 106-384, species assumed): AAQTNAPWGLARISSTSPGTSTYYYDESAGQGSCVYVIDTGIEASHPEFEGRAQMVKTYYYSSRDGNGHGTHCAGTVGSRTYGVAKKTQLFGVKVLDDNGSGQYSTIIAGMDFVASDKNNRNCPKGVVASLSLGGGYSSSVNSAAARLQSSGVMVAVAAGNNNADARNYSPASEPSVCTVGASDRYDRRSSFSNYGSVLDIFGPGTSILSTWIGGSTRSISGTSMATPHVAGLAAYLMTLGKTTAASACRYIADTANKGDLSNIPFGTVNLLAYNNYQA

Take `CC(C)C[C@@H](NC(=O)[C@H](N)Cc1ccccc1)C(=O)N[C@H](CC(N)=O)C(=O)N[C@H](C)C(=O)N[C@H](CC(C)C)C(=O)N[C@H](CCCCN)C(=O)N[C@H](CC(N)=O)C(=O)N[C@H](Cc1ccccc1)C(=O)N[C@H](C)C(=O)N[C@H](CCCCN)C(=O)N[C@@H](C(=O)N[C@H](C)C(=O)NCC(=O)N[C@H](CCCCN)C(=O)N[C@H](CCCNC(=N)N)C(=O)N[C@H](CC(C)C)C(=O)N[C@H](CCCCN)C(=O)N[C@H](CO)C(=O)N[C@H](CC(C)C)C(=O)N[C@H](CC(C)C)C(=O)N[C@H](CC(N)=O)C(N)=O)[C@H](C)O` [OMN71] (H-[dF][dL][dN][dA][dL][dK][dN][dF][dA][dK][dT][dA]G[dK][dR][dL][dK][dS][dL][dL][dN]-NH2; N-terminus assumed): the MIC values is 8 µg/mL (≈ 3.41 µM) in [1]; 16 µg/mL (≈ 6.82 µM) in data set [2]; 4 µg/mL (≈ 1.7 µM) in data set [3]; 4 µg/mL (≈ 1.7 µM) in [4]; 4 µg/mL (≈ 1.7 µM) in data set [5]; 4 µg/mL (≈ 1.7 µM) in data set [6]. In addition, the MIC values in [7] and in [8] was 16 µg/mL (≈ 6.82 µM) each time. Moreover, the “bacterial burden reduction compared to the vehicle-treated group” value in [9] is approximately 1 log CFU/lungs. The “histopathological findings grade, Heart” value in the data set with Hsd:ICR (CD-1) mice (T24 h) is recorded as 0. For the same compound, the “histopathological findings grade, Kidneys” value with Hsd:ICR (CD-1) mice (T24 h) is reported as 0. In addition, in the data set with Hsd:ICR (CD-1) mice (T24 h), the “histopathological findings grade, Liver” value stood at 0. Further, the “histopathological findings grade, Lungs” value in the data set on Hsd:ICR (CD-1) mice (T24 h) worked out at 0. The “histopathological findings grade, Spleen” value in the data set with Hsd:ICR (CD-1) mice (T24 h) was 0. Moreover, in the data set with Hsd:ICR (CD-1) mice (at T24h), the mortality result is on record as “No mortality”. The “mortality or other adverse effects” value in the data set with Hsd:ICR (CD-1) mice (monitored for an additional week) is recorded as “no mortality or any other adverse effects”. For the same compound, the MIC in data set [10] turned out to be 4 µg/mL (≈ 1.7 µM).

In the case of `CC(C)C[C@@H](NC(=O)[C@H](N)CC(N)=O)C(=O)N[C@H](CC(C)C)C(=O)N[C@H](CO)C(=O)N[C@H](CCCCN)C(=O)N[C@H](CC(C)C)C(=O)N[C@H](CCCNC(=N)N)C(=O)N[C@H](CCCCN)C(=O)NCC(=O)N[C@H](C)C(=O)N[C@@H](C(=O)N[C@H](CCCCN)C(=O)N[C@H](C)C(=O)N[C@H](Cc1ccccc1)C(=O)N[C@H](CC(N)=O)C(=O)N[C@H](CCCCN)C(=O)N[C@H](CC(C)C)C(=O)N[C@H](C)C(=O)N[C@H](CC(N)=O)C(=O)N[C@H](CC(C)C)C(=O)N[C@H](Cc1ccccc1)C(N)=O)[C@H](C)O` [OMN72], the MIC values in data set [1] is 16 µg/mL (≈ 6.82 µM); in [2], 64 µg/mL (≈ 27.3 µM); in data set [3], 16 µg/mL (≈ 6.82 µM); in data set [4], 32 µg/mL (≈ 13.6 µM); in [5], 32 µg/mL (≈ 13.6 µM); in data set [6] it was 32 µg/mL (≈ 13.6 µM). The MIC values was determined as 32 µg/mL (≈ 13.6 µM) in data set [7] and 64 µg/mL (≈ 27.3 µM) in [8].

With Bovine Serum Albumin [BSA], the “degradation by ProtK (gel band)” value with Proteinase-K (ProtK) (2.5 ng ProtK) is on record as “partially degrade”; with Proteinase-K (ProtK) (20 ng ProtK), “completely degrade”.

On to “FLNALKNFAKTAGKRLKSLLN-NH2 [OMN70, Cyanophlyctin, reference compound]”, for which the MIC values in [1] stood at 8 µg/mL; in data set [2], 16 µg/mL; in [3], 8 µg/mL; in [4], 4 µg/mL; in data set [5] it was 16 µg/mL; in data set [6], 8 µg/mL. For the same compound, the MIC values in [7] and in [8] was 16 µg/mL throughout.

In general, MIC refers to the lowest concentration found to suppress growth.

The values above are taken from US20250368700A1, “NOVEL PEPTIDE FOR TREATING AN INFECTIOUS DISEASE OR CONDITION” (OMNIX MEDICAL LTD., priority 2022, published 2025).
